Experimental data reported in ChEMBL document CHEMBL5465560, “Selectivity Literature for EUbOPEN Chemogenomic Library” (2024).

Tests used:
[1] = target: Cyclin-dependent kinase 5 (Homo sapiens, UniProt Q00535); assay: Selectivity interaction (Kinase panel (enzymatic assay)) EUB0000595a CDK5
[2] = target: T1, Receptor-interacting serine/threonine-protein kinase 1 (Homo sapiens) (UniProt Q13546); assay: Selectivity interaction (KinomeScan (DiscoverX)) EUB0000595a RIPK1; conditions: at 10 µM
T1 sequence (whole entry): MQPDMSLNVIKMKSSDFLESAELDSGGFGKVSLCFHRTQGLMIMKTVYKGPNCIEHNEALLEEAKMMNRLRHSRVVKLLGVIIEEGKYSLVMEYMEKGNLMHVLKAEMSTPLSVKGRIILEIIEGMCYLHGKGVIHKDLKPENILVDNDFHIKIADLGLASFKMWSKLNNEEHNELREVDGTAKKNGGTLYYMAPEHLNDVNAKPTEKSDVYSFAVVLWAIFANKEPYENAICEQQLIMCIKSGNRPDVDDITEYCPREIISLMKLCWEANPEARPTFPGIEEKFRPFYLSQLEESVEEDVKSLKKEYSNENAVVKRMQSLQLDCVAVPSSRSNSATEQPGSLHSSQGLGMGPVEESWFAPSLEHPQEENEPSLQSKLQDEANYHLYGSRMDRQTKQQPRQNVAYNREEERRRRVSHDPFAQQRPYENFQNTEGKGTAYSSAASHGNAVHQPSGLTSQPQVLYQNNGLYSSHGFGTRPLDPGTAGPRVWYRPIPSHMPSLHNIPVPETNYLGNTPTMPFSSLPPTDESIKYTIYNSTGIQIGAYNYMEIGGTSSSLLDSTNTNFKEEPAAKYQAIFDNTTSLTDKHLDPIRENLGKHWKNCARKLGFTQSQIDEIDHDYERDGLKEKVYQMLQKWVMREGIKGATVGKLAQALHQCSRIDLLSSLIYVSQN

[3] = target: T2, Serine/threonine-protein kinase TAO2 (Homo sapiens) (UniProt Q9UL54); assay: Selectivity interaction (Kinase panel (Z-LYTE Assay)) EUB0001632a TAOK2; conditions: at 10 µM
T2 sequence (whole entry): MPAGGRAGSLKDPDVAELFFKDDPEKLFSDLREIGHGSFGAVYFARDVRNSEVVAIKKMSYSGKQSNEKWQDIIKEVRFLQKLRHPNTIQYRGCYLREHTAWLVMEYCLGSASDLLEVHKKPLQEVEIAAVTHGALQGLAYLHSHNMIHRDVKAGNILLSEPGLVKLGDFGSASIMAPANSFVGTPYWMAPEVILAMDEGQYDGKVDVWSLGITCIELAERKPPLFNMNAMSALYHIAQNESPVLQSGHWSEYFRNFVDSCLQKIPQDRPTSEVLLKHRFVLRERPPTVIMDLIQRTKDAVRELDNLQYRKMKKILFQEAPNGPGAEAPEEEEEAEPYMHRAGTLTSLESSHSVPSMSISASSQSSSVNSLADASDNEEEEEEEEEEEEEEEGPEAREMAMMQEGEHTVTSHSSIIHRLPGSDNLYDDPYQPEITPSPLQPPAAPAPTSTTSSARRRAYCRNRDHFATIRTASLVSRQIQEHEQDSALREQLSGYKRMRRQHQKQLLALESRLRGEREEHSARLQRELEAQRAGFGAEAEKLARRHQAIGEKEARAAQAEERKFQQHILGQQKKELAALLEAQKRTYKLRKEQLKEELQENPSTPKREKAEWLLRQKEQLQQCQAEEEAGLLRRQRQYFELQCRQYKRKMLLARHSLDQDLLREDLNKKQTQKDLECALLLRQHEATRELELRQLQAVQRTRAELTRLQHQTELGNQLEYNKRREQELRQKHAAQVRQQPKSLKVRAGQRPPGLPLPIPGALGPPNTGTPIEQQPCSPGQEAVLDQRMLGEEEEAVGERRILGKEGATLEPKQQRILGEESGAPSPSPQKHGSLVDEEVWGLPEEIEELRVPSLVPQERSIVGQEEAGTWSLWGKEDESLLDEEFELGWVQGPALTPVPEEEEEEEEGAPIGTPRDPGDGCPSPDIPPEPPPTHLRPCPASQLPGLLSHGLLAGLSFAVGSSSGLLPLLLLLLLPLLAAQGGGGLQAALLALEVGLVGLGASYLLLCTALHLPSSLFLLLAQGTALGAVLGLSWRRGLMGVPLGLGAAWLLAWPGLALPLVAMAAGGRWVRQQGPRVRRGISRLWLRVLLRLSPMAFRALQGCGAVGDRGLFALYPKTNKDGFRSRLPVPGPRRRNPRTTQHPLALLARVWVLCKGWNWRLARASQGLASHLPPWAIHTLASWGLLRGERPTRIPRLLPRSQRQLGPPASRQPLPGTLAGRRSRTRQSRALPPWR

[4] = target: MAP kinase-interacting serine/threonine-protein kinase 2 (Homo sapiens, UniProt Q9HBH9); assay: Selectivity interaction (KinomeScan (DiscoverX)) EUB0000666a MKNK2; conditions: at 10 µM
MAP kinase-interacting serine/threonine-protein kinase 2, sequence (Q9HBH9 whole entry, looked up): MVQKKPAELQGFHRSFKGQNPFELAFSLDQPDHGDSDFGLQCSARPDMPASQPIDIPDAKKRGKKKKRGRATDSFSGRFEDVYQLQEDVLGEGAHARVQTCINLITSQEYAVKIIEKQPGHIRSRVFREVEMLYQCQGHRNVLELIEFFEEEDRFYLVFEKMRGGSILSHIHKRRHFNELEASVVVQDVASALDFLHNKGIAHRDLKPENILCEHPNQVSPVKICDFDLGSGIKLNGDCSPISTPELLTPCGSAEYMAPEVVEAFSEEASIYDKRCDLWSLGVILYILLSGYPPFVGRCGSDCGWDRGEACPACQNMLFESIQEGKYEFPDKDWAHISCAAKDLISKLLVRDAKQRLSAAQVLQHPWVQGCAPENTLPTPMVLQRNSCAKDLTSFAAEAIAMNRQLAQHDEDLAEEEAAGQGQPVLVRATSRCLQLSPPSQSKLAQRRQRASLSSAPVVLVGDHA

[5] = target: Tyrosine-protein kinase Lck (Homo sapiens, UniProt P06239); assay: Selectivity interaction (Panel of non-epigenetic targets (kinases, GPCRs, ion channels, and transporters, Eurofins) ) EUB0000271b LCK; conditions: at 1 µM
Tyrosine-protein kinase Lck, sequence (P06239 2-509 limits assumed): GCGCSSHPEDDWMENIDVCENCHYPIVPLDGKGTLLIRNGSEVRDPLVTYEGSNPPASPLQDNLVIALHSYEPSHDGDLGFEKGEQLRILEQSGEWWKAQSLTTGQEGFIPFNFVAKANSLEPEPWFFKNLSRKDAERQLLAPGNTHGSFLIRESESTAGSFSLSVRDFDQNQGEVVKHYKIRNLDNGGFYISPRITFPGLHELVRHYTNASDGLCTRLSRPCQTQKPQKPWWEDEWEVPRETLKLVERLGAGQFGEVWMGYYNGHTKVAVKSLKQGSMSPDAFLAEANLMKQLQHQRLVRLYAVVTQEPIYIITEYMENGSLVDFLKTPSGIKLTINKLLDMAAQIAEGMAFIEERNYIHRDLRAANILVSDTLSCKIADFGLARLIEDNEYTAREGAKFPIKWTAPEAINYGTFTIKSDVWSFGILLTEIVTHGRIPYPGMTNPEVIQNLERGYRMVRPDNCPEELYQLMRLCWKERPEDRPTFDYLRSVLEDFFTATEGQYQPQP

[6] = target: Serine/threonine-protein kinase MRCK beta (Homo sapiens) (UniProt Q9Y5S2); assay: Selectivity interaction (KinomeScan (DiscoverX)) EUB0001049a CDC42BPB; conditions: at 1 µM
Serine/threonine-protein kinase MRCK beta (Homo sapiens), sequence (Q9Y5S2 whole entry): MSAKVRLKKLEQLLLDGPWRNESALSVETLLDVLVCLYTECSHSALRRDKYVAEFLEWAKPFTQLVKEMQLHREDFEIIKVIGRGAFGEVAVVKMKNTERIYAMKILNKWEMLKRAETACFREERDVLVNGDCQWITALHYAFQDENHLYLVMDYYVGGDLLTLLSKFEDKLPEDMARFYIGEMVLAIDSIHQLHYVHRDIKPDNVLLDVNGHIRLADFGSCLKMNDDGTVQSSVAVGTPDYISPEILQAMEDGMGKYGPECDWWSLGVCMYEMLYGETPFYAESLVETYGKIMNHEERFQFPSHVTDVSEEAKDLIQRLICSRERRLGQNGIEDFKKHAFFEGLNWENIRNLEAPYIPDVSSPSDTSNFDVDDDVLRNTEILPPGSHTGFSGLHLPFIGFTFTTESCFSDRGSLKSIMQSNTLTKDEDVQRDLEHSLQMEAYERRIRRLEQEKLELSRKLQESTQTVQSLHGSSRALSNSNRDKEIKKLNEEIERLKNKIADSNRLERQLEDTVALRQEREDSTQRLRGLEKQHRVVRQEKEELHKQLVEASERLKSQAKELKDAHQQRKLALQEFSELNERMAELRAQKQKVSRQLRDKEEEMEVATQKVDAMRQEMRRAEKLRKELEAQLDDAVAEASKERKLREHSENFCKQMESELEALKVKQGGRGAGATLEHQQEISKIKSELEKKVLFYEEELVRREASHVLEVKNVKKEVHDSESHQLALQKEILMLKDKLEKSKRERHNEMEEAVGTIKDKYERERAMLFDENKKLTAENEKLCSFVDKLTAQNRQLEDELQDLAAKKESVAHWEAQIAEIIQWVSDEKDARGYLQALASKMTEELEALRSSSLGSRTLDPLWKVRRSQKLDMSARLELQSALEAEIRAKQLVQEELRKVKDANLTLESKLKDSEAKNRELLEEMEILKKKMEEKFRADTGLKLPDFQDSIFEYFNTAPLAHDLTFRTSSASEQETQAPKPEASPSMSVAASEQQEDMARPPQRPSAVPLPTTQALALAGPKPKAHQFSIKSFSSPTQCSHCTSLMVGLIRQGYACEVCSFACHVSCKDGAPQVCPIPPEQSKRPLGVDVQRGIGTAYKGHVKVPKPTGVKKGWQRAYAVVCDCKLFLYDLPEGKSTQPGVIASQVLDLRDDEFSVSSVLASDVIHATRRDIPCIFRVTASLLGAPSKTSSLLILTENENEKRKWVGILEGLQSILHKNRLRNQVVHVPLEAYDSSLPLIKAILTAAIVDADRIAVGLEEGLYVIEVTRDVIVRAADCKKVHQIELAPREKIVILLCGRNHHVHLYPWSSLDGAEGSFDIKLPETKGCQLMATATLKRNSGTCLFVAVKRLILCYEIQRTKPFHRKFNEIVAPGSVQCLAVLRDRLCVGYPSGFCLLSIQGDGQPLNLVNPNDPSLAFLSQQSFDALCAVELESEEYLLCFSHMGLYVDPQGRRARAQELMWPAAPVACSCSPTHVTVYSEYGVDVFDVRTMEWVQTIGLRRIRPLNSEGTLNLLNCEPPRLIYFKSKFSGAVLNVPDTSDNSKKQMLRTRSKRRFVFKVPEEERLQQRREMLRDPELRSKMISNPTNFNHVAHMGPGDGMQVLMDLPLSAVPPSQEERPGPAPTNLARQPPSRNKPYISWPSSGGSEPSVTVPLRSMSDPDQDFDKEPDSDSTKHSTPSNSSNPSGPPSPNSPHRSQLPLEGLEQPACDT

[7] = target: Interferon-induced, double-stranded RNA-activated protein kinase (Homo sapiens) (UniProt P19525); assay: Selectivity interaction (ActivX KiNativ screen (ex vivo kinase selectivity in human PBMCs)) EUB0001619a EIF2AK2; assay type: cell-based; conditions: PBMC, at 1 µM
Interferon-induced, double-stranded RNA-activated protein kinase (Homo sapiens), sequence (P19525 whole entry): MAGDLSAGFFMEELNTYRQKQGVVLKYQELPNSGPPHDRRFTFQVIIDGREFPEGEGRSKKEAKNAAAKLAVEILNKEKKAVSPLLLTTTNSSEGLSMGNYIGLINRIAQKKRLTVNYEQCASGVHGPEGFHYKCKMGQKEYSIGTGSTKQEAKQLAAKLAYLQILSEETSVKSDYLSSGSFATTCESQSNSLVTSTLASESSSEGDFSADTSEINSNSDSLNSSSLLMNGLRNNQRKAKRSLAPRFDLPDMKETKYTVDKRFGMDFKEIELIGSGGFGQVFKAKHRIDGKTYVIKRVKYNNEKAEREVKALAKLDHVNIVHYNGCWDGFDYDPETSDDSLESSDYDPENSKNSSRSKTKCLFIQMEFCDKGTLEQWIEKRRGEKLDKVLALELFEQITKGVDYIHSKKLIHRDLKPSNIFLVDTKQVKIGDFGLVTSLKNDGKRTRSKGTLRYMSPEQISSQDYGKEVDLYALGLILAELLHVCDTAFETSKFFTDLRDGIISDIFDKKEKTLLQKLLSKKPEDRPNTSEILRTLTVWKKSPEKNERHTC

[8] = target: Mitogen-activated protein kinase kinase kinase 11 (Homo sapiens) (UniProt Q16584); assay: Selectivity interaction (ActivX KiNativ screen (kinase selectivity in THP-1 cell lysates)) EUB0000639a MAP3K11; assay type: subcellular; conditions: lysate, at 5 µM
Mitogen-activated protein kinase kinase kinase 11 (Homo sapiens), sequence (Q16584 whole entry, looked up): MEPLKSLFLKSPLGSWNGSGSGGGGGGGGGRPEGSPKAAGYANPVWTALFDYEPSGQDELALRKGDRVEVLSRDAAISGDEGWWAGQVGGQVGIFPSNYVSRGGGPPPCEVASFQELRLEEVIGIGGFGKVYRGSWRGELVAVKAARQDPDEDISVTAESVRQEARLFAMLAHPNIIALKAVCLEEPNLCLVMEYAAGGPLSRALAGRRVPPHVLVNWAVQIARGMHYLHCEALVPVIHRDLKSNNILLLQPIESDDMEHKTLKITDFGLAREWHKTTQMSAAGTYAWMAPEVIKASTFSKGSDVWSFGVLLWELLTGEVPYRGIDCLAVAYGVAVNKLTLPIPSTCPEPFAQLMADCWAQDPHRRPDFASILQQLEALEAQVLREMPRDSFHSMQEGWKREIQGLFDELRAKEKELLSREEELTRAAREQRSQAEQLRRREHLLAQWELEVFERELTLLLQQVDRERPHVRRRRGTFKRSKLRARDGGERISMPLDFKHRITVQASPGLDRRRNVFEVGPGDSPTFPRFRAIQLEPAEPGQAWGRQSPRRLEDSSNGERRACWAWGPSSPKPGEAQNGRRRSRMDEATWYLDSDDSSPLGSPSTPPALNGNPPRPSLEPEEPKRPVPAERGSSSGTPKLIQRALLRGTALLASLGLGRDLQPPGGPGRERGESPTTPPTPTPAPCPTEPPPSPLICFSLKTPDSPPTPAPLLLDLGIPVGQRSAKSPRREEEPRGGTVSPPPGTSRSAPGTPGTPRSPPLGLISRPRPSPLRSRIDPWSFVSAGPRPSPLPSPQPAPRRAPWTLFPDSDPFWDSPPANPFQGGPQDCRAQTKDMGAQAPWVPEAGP

Cyclin-dependent kinase 5, sequence (Q00535 whole entry): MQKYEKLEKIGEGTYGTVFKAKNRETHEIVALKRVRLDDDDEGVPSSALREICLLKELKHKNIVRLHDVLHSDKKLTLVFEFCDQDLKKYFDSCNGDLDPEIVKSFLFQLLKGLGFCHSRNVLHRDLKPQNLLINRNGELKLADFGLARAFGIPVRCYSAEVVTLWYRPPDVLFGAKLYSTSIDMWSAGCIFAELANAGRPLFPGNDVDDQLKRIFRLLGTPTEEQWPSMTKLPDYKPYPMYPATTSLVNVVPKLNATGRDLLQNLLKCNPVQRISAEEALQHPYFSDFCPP

Structure (SMILES): COCC(=O)NC/C=C/c1ccc2ncnc(Nc3ccc(Oc4ccc(C)nc4)c(C)c3)c2c1 [CP-724714]
- IC50 [1]: > 10 µM
- % of control [2]: 100%

Structure (SMILES): Cn1cc(-n2cnc3c(NCc4nc5cc(Cl)c(Cl)cc5[nH]4)nc(N4CCOCC4)nc32)cn1
- % of control [3]: 41.6%

Structure (SMILES): O=C(NOC[C@H](O)CO)c1ccc(F)c(F)c1Nc1ccc(I)cc1F
- % of control [4]: 100%

Structure (SMILES): Cc1cc(C)cc([C@@H]2c3cc(C)ccc3NC(=O)CN2C(=O)c2ccc(Br)s2)c1
- % of inhibition [5]: 1%

Structure (SMILES): COc1cc(Nc2nc(C)cc(-c3cnn4nc(OC)ccc34)n2)cc(C(F)(F)F)c1
- % of control [6]: 85%

Structure (SMILES): N#Cc1cccc(-c2c[nH]c3ncnc(N4CCOCC4)c23)c1
- % of inhibition [7]: 12%

Structure (SMILES): CC[C@@H]1[C@H](F)C(=O)N[C@@H]1COc1nccc2cc(C(N)=O)c(OC)cc12 [ZIMLOVISERTIB]
- % of inhibition [8]: -18.7%
